From paper PMC11016064, “One substrate many enzymes virtual screening uncovers missing genes of carnitine biosynthesis in human and mouse” (Nature Communications, 2024)
Where two headings read alike, the source gives them in different places. One block for each molecule: values may come before it.

What was measured:
KYAT1 = molecular target: T1, KYAT1 (Homo sapiens, UniProt Q16773); assay: spectrophotometric kynurenine aminotransferase assay at […] nm, Lineweaver-Burk; type: biochemical
T1 sequence (Q16773 1-422): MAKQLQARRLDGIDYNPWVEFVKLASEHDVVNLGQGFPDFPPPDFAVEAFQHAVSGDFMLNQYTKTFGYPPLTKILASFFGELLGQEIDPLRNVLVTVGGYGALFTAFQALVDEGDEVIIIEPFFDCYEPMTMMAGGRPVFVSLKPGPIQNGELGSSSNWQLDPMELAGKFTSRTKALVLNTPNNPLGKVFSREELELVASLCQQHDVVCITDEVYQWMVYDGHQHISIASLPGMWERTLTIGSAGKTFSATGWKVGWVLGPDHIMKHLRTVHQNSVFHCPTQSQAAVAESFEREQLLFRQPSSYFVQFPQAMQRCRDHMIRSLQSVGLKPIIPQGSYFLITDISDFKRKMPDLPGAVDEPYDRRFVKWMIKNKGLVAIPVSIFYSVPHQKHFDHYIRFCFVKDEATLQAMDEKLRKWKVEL

[1] = molecular target: T2, low-specificity threonine aldolase eTA (Escherichia coli, UniProt P75823); assay: TMABADH-coupled spectrophotometric aldolase assay; type: biochemical
T2 construct: gene ltaE
T2 sequence (P75823 whole entry): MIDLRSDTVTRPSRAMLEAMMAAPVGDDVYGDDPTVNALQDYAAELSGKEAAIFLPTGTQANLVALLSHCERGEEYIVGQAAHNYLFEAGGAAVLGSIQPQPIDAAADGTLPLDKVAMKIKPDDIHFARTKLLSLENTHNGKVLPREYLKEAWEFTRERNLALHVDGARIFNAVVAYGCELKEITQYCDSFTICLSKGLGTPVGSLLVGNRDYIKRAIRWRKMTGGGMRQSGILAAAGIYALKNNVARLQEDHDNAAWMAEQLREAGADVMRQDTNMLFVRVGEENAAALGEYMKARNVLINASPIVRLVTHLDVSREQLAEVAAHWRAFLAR

SHMT2 [2] = molecular target: T3, SHMT2 (Homo sapiens, UniProt P34897); assay: TMABADH-coupled spectrophotometric aldolase assay (Km); type: biochemical
T3 sequence (P34897 30-504): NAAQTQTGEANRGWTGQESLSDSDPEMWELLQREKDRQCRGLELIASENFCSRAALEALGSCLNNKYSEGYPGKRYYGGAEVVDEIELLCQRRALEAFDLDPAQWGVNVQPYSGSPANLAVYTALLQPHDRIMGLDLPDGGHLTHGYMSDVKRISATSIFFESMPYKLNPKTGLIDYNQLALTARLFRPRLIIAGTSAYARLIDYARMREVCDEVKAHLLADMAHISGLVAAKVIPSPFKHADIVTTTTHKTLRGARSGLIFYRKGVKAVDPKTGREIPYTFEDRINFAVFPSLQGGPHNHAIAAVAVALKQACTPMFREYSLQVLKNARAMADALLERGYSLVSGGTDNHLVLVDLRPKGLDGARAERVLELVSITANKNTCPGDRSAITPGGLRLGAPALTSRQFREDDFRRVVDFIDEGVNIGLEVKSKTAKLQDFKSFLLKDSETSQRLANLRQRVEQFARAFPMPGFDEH

SHMT1 [3] = molecular target: T4, SHMT1 (Homo sapiens, UniProt P34896); assay: TMABADH-coupled spectrophotometric aldolase assay (Km); 1H NMR; type: biochemical
T4 sequence (P34896 2-483): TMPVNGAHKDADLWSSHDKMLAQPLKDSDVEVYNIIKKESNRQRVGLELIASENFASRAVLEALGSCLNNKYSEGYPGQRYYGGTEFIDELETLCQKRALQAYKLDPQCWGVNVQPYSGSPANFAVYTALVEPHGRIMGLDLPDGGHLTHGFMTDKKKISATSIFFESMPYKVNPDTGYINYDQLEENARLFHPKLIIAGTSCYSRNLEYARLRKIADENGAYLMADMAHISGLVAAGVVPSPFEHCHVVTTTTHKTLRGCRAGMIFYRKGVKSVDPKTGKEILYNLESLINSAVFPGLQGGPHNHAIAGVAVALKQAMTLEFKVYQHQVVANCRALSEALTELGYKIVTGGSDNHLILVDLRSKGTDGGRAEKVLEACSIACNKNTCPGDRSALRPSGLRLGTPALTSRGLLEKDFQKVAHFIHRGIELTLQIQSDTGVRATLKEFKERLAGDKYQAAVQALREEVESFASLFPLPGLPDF

[4] = molecular target: T5, threonine aldolase (Tha1) (Mus musculus, UniProt Q6XPS7)
T5 sequence (Q6XPS7 41-400): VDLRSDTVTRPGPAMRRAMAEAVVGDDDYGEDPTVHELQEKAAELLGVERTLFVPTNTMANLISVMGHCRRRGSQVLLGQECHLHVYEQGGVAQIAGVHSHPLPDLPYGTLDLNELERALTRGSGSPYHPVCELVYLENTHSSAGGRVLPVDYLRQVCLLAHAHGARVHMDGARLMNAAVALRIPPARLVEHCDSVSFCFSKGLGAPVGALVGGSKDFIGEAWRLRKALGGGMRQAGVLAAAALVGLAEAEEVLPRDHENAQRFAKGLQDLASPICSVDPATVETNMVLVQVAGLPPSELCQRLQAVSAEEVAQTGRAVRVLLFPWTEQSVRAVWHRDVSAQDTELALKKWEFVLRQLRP

SHMT1 [5] = molecular target: T4, SHMT1; design: Threonine cleavage coupled to alcohol dehydrogenase, NADH depletion at 340 nm, Michaelis-Menten fit; conditions: substrate
Experimental: (§1) The HTMLA activity was measured by coupling the aldol cleavage of HTML with the oxidation of TMABA by NAD^+ catalyzed by TMABADH. The rate of the reaction was calculated from the rate of appearance in absorbance at 340 nm, due to the formation of NADH, using a value of ε340 = 6220 cm^−1·M^−1. The reaction was carried out using 1 µM SHMT1 or 4 µM SHMT2 in 50 mM potassium phosphate, pH 7.5, containing 1 mM EDTA, 5 mM 2-mercaptoethanol, 0.5 mM NAD^+ and 8 µM TMABADH, at 37 °C. For Tha1 (1 µM) and eTA (0.1 µM) we kept the same conditions but a different temperature (30 °C) due to their low stability at 37 °C. The rate of L-allo-threonine and threonine cleavage was measured by coupling the reaction with reduction of the product acetaldehyde by NADH and alcohol dehydrogenase. With L-allo-threonine as substrate were reduced the amount of SHMT enzymes, 0.15 µM for SHMT1 and 1 µM for SHMT2.The rate of the reaction was calculated from the rate of disappearance in absorbance at 340 nm, due to NADH depletion.

SHMT2 [6] = molecular target: T3, SHMT2; design: Threonine cleavage coupled to alcohol dehydrogenase, NADH depletion at 340 nm, Michaelis-Menten fit; conditions: substrate
Experimental: as §1

SHMT1 [7] = molecular target: T4, SHMT1
SHMT2 [8] = molecular target: T3, SHMT2
[9] = molecular target: T5, threonine aldolase (Tha1); assay: X-ray crystal structure (monoclinic C2 form); type: binding; design: without the first 40 amino acids (predicted mitochondrial signal)
[10] = substrate: C[N+](C)(C)CCC[C@H](O)[C@H](N)C(=O)[O-]; assay: TMABADH-coupled spectrophotometric aldolase assay (Km); 1H NMR; type: biochemical, Mus musculus; conditions: PLP
[11] = substrate: C[C@H](O)[C@H](N)C(=O)O; assay: purified protein, by the assay type; design: Threonine cleavage coupled to alcohol dehydrogenase, NADH depletion at 340 nm, Michaelis-Menten fit; conditions: pH 7.5
Experimental: as §1

[12] = substrate: C[C@@H](O)[C@H](N)C(=O)O; assay: purified protein, by the assay type; design: Threonine cleavage coupled to alcohol dehydrogenase, NADH depletion at 340 nm, Michaelis-Menten fit; conditions: pH 7.5
Experimental: as §1

[13] = molecular target: the molecule itself; assay: crystal structure; sitting drop at 18 °C, 0.2 M sodium nitrate, 0.1 M Bis-Tris propane pH 8.5, 20% w/v PEG 3350; space groups F222 (one molecule in the ASU) and C2 (two molecules in the ASU); tetramer formed by crystallographic symmetries

Molecule: C[N+](C)(C)CCC[C@H](O)[C@H](N)C(=O)[O-] [HTML]
Ki (KYAT1): 4 mM
TMABADH-coupled spectrophotometric aldolase assay [1]: Characterization of its catalytic efficiency for L-allo-threonine and HTML, showed high activity with both substrates
Km (SHMT2 [2]): 0.8 mM
Km (SHMT1 [3]): 3.79 mM

alcohol dehydrogenase-coupled spectrophotometric aldolase assay (kcat/Km) [4]: ~ 10^2 s^-1 M^-1
Km (SHMT1 [5]): 0.226 ± 0.017 mM
Km (SHMT2 [6]): 1.34 ± 0.115 mM
alcohol dehydrogenase-coupled spectrophotometric aldolase assay (kcat/Km) (SHMT1 [7]): ~ 10^4 s^-1 M^-1
alcohol dehydrogenase-coupled spectrophotometric aldolase assay (kcat/Km) (SHMT2 [8]): ~ 10^2 s^-1 M^-1
Molecule: C[C@H](O)[C@H](N)C(=O)O [L-allo-threonine]

alcohol dehydrogenase-coupled spectrophotometric aldolase assay (kcat/Km) [4]: ~ 10^1 s^-1 M^-1
Km (SHMT1 [5]): 36.5 ± 2.48 mM
Km (SHMT2 [6]): 41.2 ± 3.43 mM
Molecule: C[C@@H](O)[C@H](N)C(=O)O [L-threonine]

Molecule: Cc1ncc(COP(=O)(O)O)c(C=O)c1O [PLP]
X-ray crystal structure (monoclinic C2 form) [9]: In Tha1, the PLP cofactor, bound to Lys242, is stabilized in the active site by a network of hydrogen bonds

B1: threonine aldolase (Tha1) (Mus musculus) (protein)
chain: T5 sequence (Q6XPS7 41-400)
notes: without the first 40 amino acids (predicted mitochondrial signal)
Km [10]: 0.169 mM
Km [11]: 8.236 ± 0.86 mM
kcat/Km [11]: 238 ± 26.2 M⁻¹ s⁻¹
Km [12]: 37.531 ± 10.873 mM

B2: mouse threonine aldolase (Tha1), truncated form without the first 40 amino acids (enzyme, UniProt Q6XPS7 41-400, looked up)
chain: T5 sequence (Q6XPS7 41-400)
modifications: PLP cofactor bound to Lys242 (visible only in the monoclinic structure)
notes: Threonine aldolase Tha1, Mus musculus, CDS NM_027919.4 without the first 40 amino acids (predicted mitochondrial signal); The plasmid was bought from GenScript; also called Htmla; hydroxytrimethyllysine aldolase; source: E. coli BL21 with pGRO7 (GroEL/GroES co-expressed), purified (HisTrap, Superdex 200 size exclusion); not shown: His tag (from the vector pET-28b)
stoichiometry N [13]: 4
